Measured values published in PubChem BioAssay AID256 (DTP/NCI, 2004).
Where “and” joins values, the source holds several entries; their conditions need not be identical. Equal entries are not always repeated. Inconclusive results and toxic doses are left out. Rule for the calls: active = survival T/C of 150% or more; inactive = T/C below 125% in these data.

Test system: CD2F1 mice, L1210 leukemia ip, survival T/C
Assay: NCI In Vivo Anticancer Drug Screen. Data for tumor model L1210 Leukemia (intraperitoneal) in CD2F1 (CDF1) mice
Conditions: higher = longer survival
How it was run: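 Compound-dosed mice with transplantable tumor versus matched vehicle controls; endpoint ratio T/C reported.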

[1] = endpoint: mean survival time, dose: 25.0 mg/kg/injection, schedule: Q01DX009 (ip), vehicle: saline with Tween-80
[2] = endpoint: mean survival time, dose: 50.0 mg/kg/injection, schedule: Q01DX009 (ip), vehicle: saline with Tween-80
[3] = endpoint: mean survival time, dose: 100.0 mg/kg/injection, schedule: Q01DX009 (ip), vehicle: saline with Tween-80
[4] = endpoint: mean survival time, dose: 100.0 mg/kg/injection, schedule: Q04DX003 (ip), vehicle: saline with Tween-80
[5] = endpoint: mean survival time, dose: 200.0 mg/kg/injection, schedule: Q01DX009 (ip), vehicle: saline with Tween-80
[6] = endpoint: mean survival time, dose: 200.0 mg/kg/injection, schedule: Q04DX003 (ip), vehicle: saline with Tween-80
[7] = endpoint: mean survival time, dose: 400.0 mg/kg/injection, schedule: Q01DX009 (ip), vehicle: saline with Tween-80
[8] = endpoint: mean survival time, dose: 400.0 mg/kg/injection, schedule: Q04DX003 (ip), vehicle: saline with Tween-80
[9] = endpoint: mean survival time, dose: 100.0 mg/kg/injection, schedule: Q01DX001 (ip), vehicle: saline with Tween-80
[10] = endpoint: mean survival time, dose: 200.0 mg/kg/injection, schedule: Q01DX001 (ip), vehicle: saline with Tween-80
[11] = endpoint: mean survival time, dose: 400.0 mg/kg/injection, schedule: Q01DX001 (ip), vehicle: saline with Tween-80
[12] = endpoint: mean survival time, dose: 6.25 mg/kg/injection, schedule: Q01DX009 (ip), vehicle: saline with Tween-80
[13] = endpoint: mean survival time, dose: 50.0 mg/kg/injection, schedule: Q01DX009 (ip), vehicle: saline
[14] = endpoint: mean survival time, dose: 100.0 mg/kg/injection, schedule: Q01DX009 (ip), vehicle: saline
[15] = endpoint: mean survival time, dose: 50.0 mg/kg/injection, schedule: Q01DX009 (ip), vehicle: Klucel (hydroxypropylcellulose) (HPC)
[16] = endpoint: mean survival time, dose: 100.0 mg/kg/injection, schedule: Q01DX009 (ip), vehicle: Klucel (hydroxypropylcellulose) (HPC)
[17] = endpoint: mean survival time, dose: 200.0 mg/kg/injection, schedule: Q01DX009 (ip), vehicle: Klucel (hydroxypropylcellulose) (HPC)
[18] = endpoint: mean survival time, dose: 400.0 mg/kg/injection, schedule: Q01DX009 (ip), vehicle: Klucel (hydroxypropylcellulose) (HPC)
[19] = endpoint: mean survival time, dose: 50.0 mg/kg/injection, schedule: Q04DX002 (ip), vehicle: saline with Tween-80
[20] = endpoint: mean survival time, dose: 100.0 mg/kg/injection, schedule: Q04DX002 (ip), vehicle: saline with Tween-80

Measured: T/C

CC1(C)OC2C(COC(=O)CI)OC(n3ccc(=O)[nH]c3=O)C2O1 (centres undefined)
inactive: endpoint: median survival time, dose: 25.0 mg/kg/injection, schedule: Q01DX005 (ip), vehicle: Klucel (hydroxypropylcellulose) (HPC) 102 % of control | endpoint: median survival time, dose: 50.0 mg/kg/injection, schedule: Q01DX005 (ip), vehicle: Klucel (hydroxypropylcellulose) (HPC) 98 % of control

Cc1sc(Cc2ccccc2)nc1-c1ccc(N=Cc2ccc(N(CCOS(C)(=O)=O)CCOS(C)(=O)=O)cc2)cc1
inactive: [1] 107 % of control | [2] 93 % of control

COc1ccc2c(c1)CCC(c1ccccc1)=C2c1ccc(OCCN2CCCC2)cc1
inactive: endpoint: mean survival time, dose: 6.0 mg/kg/injection, schedule: Q01DX009 (ip), vehicle: saline with Tween-80 103 % of control | endpoint: mean survival time, dose: 12.0 mg/kg/injection, schedule: Q01DX009 (ip), vehicle: saline with Tween-80 106 % of control | endpoint: mean survival time, dose: 24.0 mg/kg/injection, schedule: Q01DX009 (ip), vehicle: saline with Tween-80 101 % of control | endpoint: mean survival time, dose: 40.0 mg/kg/injection, schedule: Q04DX003 (ip), vehicle: saline with Tween-80 104 % of control | endpoint: mean survival time, dose: 80.0 mg/kg/injection, schedule: Q04DX003 (ip), vehicle: saline with Tween-80 101 % of control

O=C(C1CC1c1ccccc1)N1CCC(Nc2ccccc2)CC1 (centres undefined)
inactive: endpoint: mean survival time, dose: 100.0 mg/kg/injection, schedule: Q04DX002 (ip), vehicle: other 102 % of control | endpoint: mean survival time, dose: 200.0 mg/kg/injection, schedule: Q04DX002 (ip), vehicle: other 94 % of control | endpoint: mean survival time, dose: 400.0 mg/kg/injection, schedule: Q04DX002 (ip), vehicle: other 90 % of control

O=C(/C=C/c1ccccc1)Cc1ccccc1
inactive: [3] 93 % of control | [4] 92 % of control | [5] 98 % of control | [6] 93 % of control | [7] 88 % of control | [8] 93 % of control

O=C(COc1ccc(Cl)c(Cl)c1)Nc1cccc(S(=O)(=O)F)c1
inactive: [9] 95 % of control | [10] 95 % of control | [11] 91 % of control

CC1=C(C)C(=O)O[C@@H]([C@](C)(O)[C@]2(O)CC[C@@]3(O)[C@@H]4C[C@H]5O[C@]56CC=CC(=O)[C@]6(C)[C@H]4CC[C@]23C)C1
inactive: endpoint: mean survival time, dose: 3.12 mg/kg/injection, schedule: Q01DX009 (ip), vehicle: saline with Tween-80 104 % of control | endpoint: mean survival time, dose: 3.12 mg/kg/injection, schedule: Q01DX009 (ip), vehicle: saline 112 % of control | [12] 105 % of control | endpoint: mean survival time, dose: 6.25 mg/kg/injection, schedule: Q01DX009 (ip), vehicle: saline 123 % of control | endpoint: mean survival time, dose: 12.5 mg/kg/injection, schedule: Q01DX009 (ip), vehicle: saline 112 % of control | [1] 107 % of control | endpoint: mean survival time, dose: 25.0 mg/kg/injection, schedule: Q01DX009 (ip), vehicle: saline 110 % of control | [2] 115 % of control | [13] 98 % of control | [3] 107 % of control | [14] 93 % of control

CCOC(=O)COc1ccc(OC)cc1C=O
inactive: [9] 93 % of control | [10] 93 % of control | [11] 97 % of control

CC1(c2cc(F)cc3ccccc23)OC(=O)c2ccccc21 (centres undefined)
inactive: endpoint: median survival time, dose: 25.0 mg/kg/injection, schedule: Q04DX003 (ip), vehicle: saline with Tween-80 100 % of control | endpoint: median survival time, dose: 50.0 mg/kg/injection, schedule: Q04DX003 (ip), vehicle: saline with Tween-80 100 % of control | endpoint: median survival time, dose: 100.0 mg/kg/injection, schedule: Q04DX003 (ip), vehicle: saline with Tween-80 100 % of control | endpoint: median survival time, dose: 200.0 mg/kg/injection, schedule: Q04DX003 (ip), vehicle: saline with Tween-80 100 % of control

CSc1cc(C)n2nnnc2n1
inactive: endpoint: mean survival time, dose: 100.0 mg/kg/injection, schedule: Q01DX001 (ip), vehicle: saline 101 % of control

CC(=O)Oc1ccc2c3c(cccc13)CC2
inactive: [4] 98 % of control | [6] 98 % of control | [8] 98 % of control

CCN(CC)CCC(=O)Nc1cccc2c1C(=O)c1c(c(O)c3ccccc3c1O)C2=O
inactive: endpoint: mean survival time, dose: 6.0 mg/kg/injection, schedule: Q04DX003 (ip), vehicle: saline with Tween-80 100 % of control | endpoint: mean survival time, dose: 12.0 mg/kg/injection, schedule: Q04DX003 (ip), vehicle: saline with Tween-80 100 % of control | endpoint: mean survival time, dose: 24.0 mg/kg/injection, schedule: Q04DX003 (ip), vehicle: saline with Tween-80 100 % of control | endpoint: mean survival time, dose: 48.0 mg/kg/injection, schedule: Q04DX003 (ip), vehicle: saline with Tween-80 103 % of control

COC(=O)c1ccn2c1CCC2
inactive: endpoint: mean survival time, dose: 25.0 mg/kg/injection, schedule: Q01DX009 (ip), vehicle: Klucel (hydroxypropylcellulose) (HPC) 92 % of control | [15] 87 % of control | [16] 91 % of control | [17] 97 % of control | [18] 87 % of control

CCOC(=O)CN(C=O)C1c2ccccc2-c2ccccc21
inactive: [4] 99 % of control | [6] 92 % of control | [8] 97 % of control

N/C(=N\OC(=O)Nc1ccc(CSc2ccc(Cl)cc2)o1)c1ccccn1
inactive: endpoint: median survival time, dose: 12.5 mg/kg/injection, schedule: Q01DX009 (ip), vehicle: Klucel (hydroxypropylcellulose) (HPC) 98 % of control | endpoint: median survival time, dose: 25.0 mg/kg/injection, schedule: Q01DX009 (ip), vehicle: Klucel (hydroxypropylcellulose) (HPC) 103 % of control | endpoint: median survival time, dose: 50.0 mg/kg/injection, schedule: Q01DX009 (ip), vehicle: Klucel (hydroxypropylcellulose) (HPC) 102 % of control | endpoint: median survival time, dose: 100.0 mg/kg/injection, schedule: Q01DX009 (ip), vehicle: Klucel (hydroxypropylcellulose) (HPC) 102 % of control | endpoint: median survival time, dose: 200.0 mg/kg/injection, schedule: Q01DX009 (ip), vehicle: Klucel (hydroxypropylcellulose) (HPC) 95 % of control

Oc1ccc(-c2ccc(O)cc2)cc1
inactive: endpoint: mean survival time, dose: 50.0 mg/kg/injection, schedule: Q04DX003 (ip), vehicle: saline with Tween-80 100 % of control | [4] 101 % of control and 107 % of control | [6] 109 % of control | [8] 121 % of control

O=C(O)C(=O)O.O=N[O-].O=N[O-].[Co+2].[NH2-].[NH2-]
inactive: endpoint: mean survival time, dose: 25.0 mg/kg/injection, schedule: Q04DX002 (ip), vehicle: saline with Tween-80 93 % of control | [19] 117 % of control | [20] 98 % of control

O=C(CO)c1ccccc1
inactive: [4] 97 % of control | [6] 92 % of control | [8] 92 % of control

CCc1nc(-c2ccccc2)c(-c2ccccc2)[nH]1
inactive: [4] 90 % of control | [6] 92 % of control | [8] 90 % of control

C=C[CH2][Sn]([CH2]C=C)([c]1ccccc1)[c]1ccccc1
inactive: [12] 89 % of control | endpoint: median survival time, dose: 25.0 mg/kg/injection, schedule: Q04DX002 (ip), vehicle: saline with Tween-80 112 % of control

CCOC(=O)N1CCc2cc(OC)c(OC)cc2C1=C(c1ccccc1)c1ccccc1
inactive: [3] 91 % of control | [4] 86 % of control | [5] 95 % of control | [7] 88 % of control | [8] 86 % of control

NNC(=O)C1CC2CCC1C2 (centres undefined)
inactive: [13] 107 % of control | [14] 109 % of control | endpoint: mean survival time, dose: 100.0 mg/kg/injection, schedule: Q04DX003 (ip), vehicle: saline 97 % of control | endpoint: mean survival time, dose: 200.0 mg/kg/injection, schedule: Q01DX009 (ip), vehicle: saline 105 % of control | endpoint: mean survival time, dose: 200.0 mg/kg/injection, schedule: Q04DX003 (ip), vehicle: saline 114 % of control

NC(=S)N/N=C/c1ccccc1O
inactive: [3] 102 % of control | [5] 91 % of control | [7] 88 % of control

O=C(COc1ccc(Cl)c(Cl)c1)NCc1ccc(Cl)cc1
inactive: [4] 97 % of control | [6] 95 % of control | [8] 93 % of control

CC(=O)CC(=O)c1ccc(C(=O)CC(C)=O)cc1.[Fe]
inactive: [4] 96 % of control | [6] 89 % of control | [8] 104 % of control

Nc1ccc2ccccc2c1N=Nc1ccccc1
inactive: [15] 106 % of control | [16] 112 % of control | [17] 113 % of control | [18] 103 % of control

CC(C)C(NC(=O)c1cccnc1)C(=O)O (centres undefined)
inactive: [19] 100 % of control | [9] 108 % of control | [20] 100 % of control | [10] 108 % of control | endpoint: mean survival time, dose: 200.0 mg/kg/injection, schedule: Q04DX002 (ip), vehicle: saline with Tween-80 104 % of control | [11] 97 % of control
